Data taken from publication doi:10.1101/2022.10.27.513961v1 (bioRxiv, 2022).

How the values were obtained:
Type in all cases: cell-based
[1] = tested on: WM164 cells; assay: Cytotoxicity, resazurin assay; conditions: Homo sapiens, WM164, Parental WM164 cells
[2] = tested on: HT144 cells; assay: Cytotoxicity, resazurin assay; conditions: for IC50: Homo sapiens
[3] = tested on: WM164 cells; assay: Co-treatment of dabrafenib with peptide, resazurin assay; conditions: drug-naïve WM164, drug (50 nM) or peptide (at IC50) added alone, 72 h
[4] = tested on: WM164 cells; assay: Lipidome analysis, shotgun tandem MS of lipid extracts
[5] = tested on: HT144 cells; assay: as above
[6] = tested on: WM164 cells; assay: Cell surface charge, zeta potential; conditions: WM164 PDRCs (105 days with dabrafenib), mean ± SEM, n=3
[7] = tested on: HT144 cells; assay: Cell surface charge, zeta potential; conditions: mean ± SEM, n=3
[8] = tested on: WM164 cells; assay: Microscopy during long-term treatment; conditions: WM164, 100 nM dabrafenib
[9] = tested on: HT144 cells; assay: Microscopy during long-term treatment; conditions: HT144, 100 nM dabrafenib
[10] = WM164, 15-30 days of dabrafenib
[11] = WM164, dabrafenib 30 days vs untreated
[12] = HT144, dabrafenib 30 days vs untreated

For `CC(C)(C)c1nc(-c2cccc(NS(=O)(=O)c3c(F)cccc3F)c2F)c(-c2ccnc(N)n2)s1` [dabrafenib, reference compound], the IC50 [1] was 44 nM, the IC50 ([2]; HT-144, 72 h, HT144 PDRC (100 nM), resazurin three days after drug) was greater than 1000 nM and the IC50 ([2]; HT-144, Parental HT144 cells) was 22 nM. For the same compound, the toxicity ([2]; PDR HT144 cells, at 1µM) was roughly 10%, the cell death [3] was ~ 50% and the SM proportion ([4]; WM164, 100 nM dabrafenib 30 days (untreated 3)) was 11 mol%. The “fold increase of PI 38:4” value [4, 10] was 3 fold, the “fold increase of SM 36:1” value [4, 10] was 3 fold and the “SM 36:1 abundance” value ([4]; WM164, 15-30 days of dabrafenib (before 8)) was 26 mol%. The “PI 38:4 abundance” value ([4]; WM164, 15-30 days of dabrafenib (before 18)) was 55 mol%, the “negatively charged lipids (PS+PI) proportion” value ([4]; WM164, dabrafenib 30 days (untreated 19)) was 23 mol% and the “zwitterionic PE and PC proportion” value ([4]; WM164, dabrafenib 30 days (untreated 78)) was 66 mol%. The “fold decrease in PE and PC” value [4, 11] was 0.8 fold, the “fold increase in PS+PI” value [4, 11] was 1.2 fold and the “fold increase in SM” value [4, 11] was 3.7 fold. It also gave an SM proportion ([5]; HT144, dabrafenib 30 days (untreated 5)) of 9 mol%, a PE proportion ([5]; HT144, dabrafenib 30 days (untreated 15)) of 20 mol% and a PC proportion ([5]; HT144, dabrafenib 30 days (untreated 59)) of 51 mol%. The “fold decrease in PC” value [5, 12] was 0.9 fold, the “fold increase in PE” value [5, 12] was 1.3 fold and the “fold increase in SM” value [5, 12] was 1.8 fold. For the same compound, the “surface charge, zeta potential” value [6] was −20.18 ± 0.95 mV, the “surface charge, zeta potential” value ([7]; HT144 DTPs (30 days with dabrafenib)) was −15.94 ± 0.59 mV and the “surface charge, zeta potential” value ([7]; HT144 PDRCs (105 days with dabrafenib)) was −17.7 ± 0.30 mV. For the same compound, the “time to death of drug-naïve cells” value [8] was no more than 48 h and the “time to death of drug-naïve cells” value [9] was no more than 48 h.
